Where “and” joins values, the source holds several entries; their conditions need not be identical. Equal values may be shown once.
How the values were obtained:
BP-II patients [1] = experiment: Symptom severity (HDRS, YMRS) in 12-week randomized double-blind placebo-controlled add-on trial; type: in vivo, human; conditions: for Within group change (baseline minus endpoint) HDRS, Mean ± SD / Within group change (baseline minus endpoint) YMRS, Mean ± SD: BP-II patients, add-on to valproic acid, 12-week follow-up; for HDRS, difference versus placebo, B (standardized coefficient) / YMRS, difference versus placebo, B (standardized coefficient): GEE, treatment group x treatment duration interaction, placebo as reference, controlling for age, gender, treatment duration
Text: (§1) 250˜300 male and female BP-II patients (18˜65 years old) were recruited, from the Department of Psychiatry at National Cheng Kung University Hospital and Tri-Service General Hospital into a 12-week treatment. The research protocol was examined for approval by the Institutional Review Board for the Protection of Human Subjects at National Cheng Kung University Hospital and Tri-Service General Hospital. All participants were given a complete description of the study and were asked to sign an informed consent before the study began. Patients who had major, mental illnesses other than BP-II and who had taken memantine or DM within 1 week before the first dose of the double-blind medication were excluded. The Chinese Version of Modified Schedule of Affective Disorder and Schizophrenia-Life Time (SADS-L) will be conducted for confirmation of the diagnosis. […] After each patient had been diagnosed based on DSM-IV criteria by a senior psychiatrist and confirmed by a clinical psychologist using a structured interview, SADS-L, the severity of each patient's clinical symptoms was assessed using the 17-item Hamilton Rating Scale for Depression (HRSD) and the Young Mania Rating Scale (YMRS). All the patients at Screen who score 18 on the HRSD or 14 on the YMRS were recruited. Eligible patients were randomly assigned into four treatment groups (n=40-45 for each group) in a double-blind manner and all groups matched in demographic characteristics, symptom severity, while they received open-label valproic acid (VPA) treatment (500 mg and 1000 mg daily [[…] in plasma]): 1) DM (30 mg/day), 2) memantine (5 mg/day), 3) combination of DM and memantine (30 mg/day DM and 5 mg/day memantine), and 4) placebo respectively for 12 weeks. Patients were randomized into 4 groups through a computer-generated randomization table to receive placebo or any of active treatments in a 1:1:1:1 ratio. The patients with side-effect intolerance or clinical worsening were withdrawn earlier.
Efficacy will be assessed by the YMRS, HDRS and Side-Effects.
Clinical ratings were performed by research psychiatric professionals who were well-trained and experienced in the rating scales. All assessments were blind to treatment assignment and completed at baseline and at the end of week 1, 2, 4, 8 and 12. Routine laboratory tests, including CBC and biochemistry were checked at baseline and the end of week 12.
(2) Young Mania Rating Scale (YMRS) and 17-item Hamilton Depression Rating Scale (HDRS)
Those clinically suspected of having a mood disorder were invited to be interviewed with the Chinese version SADS-L and diagnosed as having BP-II. The severity of current symptoms was assessed by using the YMRS and HDRS. The diagnosis of a mood disorder was made according to DSM-IV criteria, except for BP-II, for which we used a 2-day instead of a 4-day duration for hypomania.
(§2) The intent to-treat (ITT) analysis set included all randomized patients who received at least one dose of study drug, and had one baseline assessment and at least one after baseline. All the outcome variables were analyzed in the ITT set, including HDRS, YMRS, cytokine levels, plasma BDNF levels and metabolic parameters; missing data was filled in using the last observation carried forward (LOCF) method.
(§3) The overall within-group changes of each outcome over the 12 weeks were analyzed by paired sample t-test. To compare the difference in outcomes of add-on medication (DM30, MM5, and DM30+MM5) versus placebo, generalized estimating equation (GEE) was adopted. A total of 10 models ran with each outcome as a dependent variable. In each model, add-on medication received (DM30, MM5, and DM30+MM5 vs. controls), treatment duration, treatment received X treatment duration, gender, and age were included as independent variables. The covariance structure employed was autoregressive (AR(1)) model. The placebo group was used as reference group. […]

[2] = Metabolic profiles (cholesterol, HDL-C, LDL-C, triglyceride, glucose) in 12-week add-on trial; type: in vivo, human; conditions: for Within group change (baseline minus endpoint) Glucose, Mean ± SD / Within group change (baseline minus endpoint) HDL-C, Mean ± SD / Within group change (baseline minus endpoint) LDL-C, Mean ± SD / Within group change (baseline minus endpoint) Total cholesterol, Mean ± SD / Within group change (baseline minus endpoint) Triglyceride, Mean ± SD: BP-II patients, add-on to valproic acid, 12-week follow-up; for Glucose, difference versus placebo, B (standardized coefficient) / HDL-C, difference versus placebo, B (standardized coefficient) / LDL-C, difference versus placebo, B (standardized coefficient) / Total Cholesterol, difference versus placebo, B (standardized coefficient) / Triglyceride, difference versus placebo, B (standardized coefficient): GEE interaction term, placebo as reference, controlling for age, gender, treatment duration, HDRS and YMRS
Text: as §1
(§4) Symptom severity, immunological parameters (plasma tumor necrosis factor α (TNF-α) and C-reactive protein (CRP)) and plasma brain derived neurotrophic factor (BDNF) were examined regularly. Metabolic profiles (cholesterol, triglyceride, HbA1C, fasting serum glucose, body mass index [BMI]) were measured at baseline and 2, 8, and 12 weeks. Concomitant benzodiazepine medication (lorazepam <8 mg) was used for nighttime sedation, and to treat agitation and insomnia during the study. Up to 20 mg/daily of fluoxetine was permitted for associated depressive symptoms.
as §2
as §3, with “group. The interaction term of treatment received X treatment duration was regarded as effect of add-on DM30, MM5, and DM30+MM5. To analyze correlations between cytokines, BDNF and metabolic profiles, GEE analysis was used as well.” for “group.”

[3] = Example 2: 4-week clinical trial of dextromethorphan added on to depakine, cholesterol and LDL; type: in vivo, human; conditions: 30 mg/day added on to depakine
Experimental: This example was a clinical trial for the treatment of bipolar II disorder using 30 mg/day of dextromethorphan (off label use) adding on to depakine (plasma level […]). 44 patients with bipolar II disorder were recruited, and change of cholesterol was monitored only over 4 weeks.

BDNF = experiment: Plasma BDNF by ELISA in 12-week add-on trial; type: in vivo, human; conditions: for Within group change (baseline minus endpoint) BDNF, Mean ± SD: BP-II patients, plasma, add-on to valproic acid, 12-week follow-up; for BDNF, difference versus placebo, B (standardized coefficient): GEE interaction term, placebo as reference, controlling for age, gender, treatment duration, HDRS and YMRS
Text: as §1
Serum levels of DM, memantine, plasma BDNF, and cytokines were measured. […] of whole blood was drawn and collected from the antecubital vein. Plasma were isolated from the whole blood after the 3000 g centrifugation at 4° C. for 15 min and stored at −80° C. immediately. Plasma BDNF, CRP, TNF-α, were measured at baseline, 1, 2, 4, 8 and 12 weeks and quantified using the enzyme-linked immunosorbent assays (ELISAs). Cytokine levels were quantified using an antibody pair assay system (Flexia; BioSource Intl., Camarillo, Calif.). Sample processing and data analysis were done according to the manufacturer's instructions. The low limit sensitivity was 0.126 pg/ml, 0.057 pg/ml, and 20 pg/ml for TNF-α, IL-1β, and BDNF respectively. Finally, HPLC with UV detector and therapeutic drug monitoring (TDM) was used to measure the plasma DM and VPA level respectively.
as §4, with “Up to 20 mg/daily of fluoxetine was permitted for associated depressive symptoms.” left out
(§5) The overall within-group changes of each outcome over the 12 weeks were analyzed by paired sample t-test. […]

TNF-α = experiment: Plasma TNF-α by ELISA in 12-week add-on trial; type: in vivo, human; conditions: for Within group change (baseline minus endpoint) TNF-α, Mean ± SD: BP-II patients, plasma, add-on to valproic acid, 12-week follow-up; for TNF-α, difference versus placebo, B (standardized coefficient): GEE interaction term, placebo as reference, controlling for age, gender, treatment duration, HDRS and YMRS
Text: as §1
Serum levels of DM, memantine, plasma BDNF, and cytokines were measured. […] Plasma BDNF, CRP, TNF-α, were measured at baseline, 1, 2, 4, 8 and 12 weeks and quantified using the enzyme-linked immunosorbent assays (ELISAs). Cytokine levels were quantified using an antibody pair assay system (Flexia; BioSource Intl., Camarillo, Calif.). […]
Symptom severity, immunological parameters (plasma tumor necrosis factor α (TNF-α) and C-reactive protein (CRP)) and plasma brain derived neurotrophic factor (BDNF) were examined regularly. Metabolic profiles (cholesterol, triglyceride, HbA1C, fasting serum glucose, body mass index [BMI]) were measured at baseline and 2, 8, and 12 weeks. […]
as §5

[4] = cited from earlier work
CRP = experiment: Plasma CRP by ELISA in 12-week add-on trial; type: in vivo, human; conditions: for Within group change (baseline minus endpoint) CRP, Mean ± SD: BP-II patients, plasma, add-on to valproic acid, 12-week follow-up; for CRP, difference versus placebo, B (standardized coefficient): GEE interaction term, placebo as reference, controlling for age, gender, treatment duration, HDRS and YMRS
[5] = test system: opioid addictive behavior; conditions: rat, 0.2 mg/kg (1/100 dosage); cited from earlier work
BP-II patients [6] = experiment: Side effects / discontinuation in 12-week add-on trial; type: in vivo, human; conditions: 12-week trial, n=66 in group
Text: 250˜300 male and female BP-II patients (18˜65 years old) were recruited, from the Department of Psychiatry at National Cheng Kung University Hospital and Tri-Service General Hospital into a 12-week treatment. The research protocol was examined for approval by the Institutional Review Board for the Protection of Human Subjects at National Cheng Kung University Hospital and Tri-Service General Hospital. All participants were given a complete description of the study and were asked to sign an informed consent before the study began. Patients who had major, mental illnesses other than BP-II and who had taken memantine or DM within 1 week before the first dose of the double-blind medication were excluded. […] After each patient had been diagnosed based on DSM-IV criteria by a senior psychiatrist and confirmed by a clinical psychologist using a structured interview, SADS-L, the severity of each patient's clinical symptoms was assessed using the 17-item Hamilton Rating Scale for Depression (HRSD) and the Young Mania Rating Scale (YMRS). […]
The severity of side effects was evaluated by using the Chinese version of Side-Effects Checklist which derived from Psychiatric Rating and Diagnostic Instruments (TRIMS, 1972) and included 7 categories as follows: 1) Mental Status; 2) Genito-Urinary; 3) Cardiovascular; 4) Head-Neck; 5) Extremities; 6) Skin; 7) Gastrointestinal. […]

SMILES	Within group change (baseline minus endpoint) HDRS, Mean ± SD (BP-II patients [1])	Within group change (baseline minus endpoint) YMRS, Mean ± SD (BP-II patients [1])	HDRS, difference versus placebo, B (standardized coefficient) (BP-II patients [1])	YMRS, difference versus placebo, B (standardized coefficient) (BP-II patients [1])	Within group change (baseline minus endpoint) Glucose, Mean ± SD [2]	Within group change (baseline minus endpoint) HDL-C, Mean ± SD [2]	Within group change (baseline minus endpoint) LDL-C, Mean ± SD [2]	Within group change (baseline minus endpoint) Total cholesterol, Mean ± SD [2]	Within group change (baseline minus endpoint) Triglyceride, Mean ± SD [2]	Glucose, difference versus placebo, B (standardized coefficient) [2]	HDL-C, difference versus placebo, B (standardized coefficient) [2]	LDL-C, difference versus placebo, B (standardized coefficient) [2]	Total Cholesterol, difference versus placebo, B (standardized coefficient) [2]	Triglyceride, difference versus placebo, B (standardized coefficient) [2]	Within group change (baseline minus endpoint) BDNF, Mean ± SD (BDNF)	BDNF, difference versus placebo, B (standardized coefficient) (BDNF)	Within group change (baseline minus endpoint) TNF-α, Mean ± SD (TNF-α)	TNF-α, difference versus placebo, B (standardized coefficient) (TNF-α)	Within group change (baseline minus endpoint) CRP, Mean ± SD (CRP)	CRP, difference versus placebo, B (standardized coefficient) (CRP)	further results
COc1ccc2c(c1)[C@]13CCCC[C@@H]1[C@H](C2)N(C)CC3 [DM30, dextromethorphan]	6.4 ± 4.7	4.7 ± 3.4	−1.38	−1.00	9.0 ± 38.1 mg/dL	1.6 ± 10.2 mg/dL	-0.9 ± 23.1 mg/dL	-0.1 ± 28.7 mg/dL	-11.6 ± 168.4 mg/dL	−5.33	0.79	8.80	6.95	28.08	-2.3 ± 8.3 ng/mL	2.94	0.1 ± 2.5 pg/mL	−0.04	10.9 ± 1290.3 ng/mL	0.05	cholesterol and LDL in human, in words ([3]; 4 weeks): decreased; low density lipid protein (LDL), first value (before treatment) ([3]; 44 bipolar II patients): 127.70 ± 34.24 mg/dL; total cholesterol, first value (before treatment) ([3]; 44 bipolar II patients): 194.70 ± 39.49 mg/dL; total cholesterol over 4-week of treatment, second value ([3]; 44 bipolar II patients, P=0.09): 186.16 ± 37.95 mg/dL; low density lipid protein (LDL) over 4-week of treatment, second value ([3]; 44 bipolar II patients, P=0.13): 120.84 ± 34.013 mg/dL; BDNF level, within group change, in words (BDNF; after 12 weeks of treatment): Significant improved; plasma levels of DM ([4]; BP patients, U.S. Pat. No. 8,785,472): 5 to 100 ng/mL; plasma DM concentrations ([4]; patients taking 30-60 mg/70 kg of DM, listed as DM): 10-30 ng/ml and 28-84 nM
CC12CC3CC(C)(C1)CC(N)(C3)C2 [MM5, memantine]	6.3 ± 4.9	4.6 ± 3.9	−1.33	−0.98	-3.3 ± 22.6 mg/dL	2.4 ± 8.7 mg/dL	2.6 ± 22.0 mg/dL	0.5 ± 24.5 mg/dL	-10.7 ± 38.7 mg/dL	7.63	−0.07	4.45	3.14	8.81	0.3 ± 7.6 ng/mL	0.02	0.3 ± 1.8 pg/mL	−0.15	-12.6 ± 1269.4 ng/mL	0.09	opioid addictive behavior by conditioned place preference, in words [5]: effective; patients discontinuing with poor tolerance to a side effect (dizziness) (BP-II patients [6]): One
